According to patent publication EP2145877A2, “Aurora Kinase inhibitors” (Takeda Pharmaceutical Company Limited, priority 2006, dated 2008):

These compounds were tested against Aurora B/INCENP (Homo sapiens, UniProt Q96GD4) (assay: Inhibition of AIK: Aurora B/INCENP Direct Fluorescence Polarization (IMAP) kinase assay). Details: IC50 against AIK B; 10 uM ATP, 0.8 nM Aurora B/INCENP, 45 min at room temperature, FP readout; values given as bins.
Type: biochemical
Description: Detection of the reaction product is performed by addition of Progressive IMAP binding reagent (Molecular Devices). Reaction product may be determined quantitatively by FP using an Analyst HT plate reader (Molecular Devices) with an excitation wavelength at 485 nm and emission at 530 nm and using a Fluorescein 505 dichroic mirror.
The assay reaction may be initiated as follows: 2 ul of (3x) 300 nM Fl-Peptide/30 uM ATP was added to each well of the plate, followed by the addition of 2 ul of (3x) inhibitor (2 fold serial dilutions for 11 data points for each inhibitor) containing 15% DMSO. Two microliters of (3x) 2.4 nM AuroraB/INCENP solution may be added to initiate the reaction (final enzyme concentration was 0.8 nM for Aurora B/INCENP). The reaction mixture may then be incubated at room temperature for 45 min, and quenched and developed by addition of 20 ul of 1 to 400 diluted Progressive IMAP binding reagent in 1x proprietary Progressive IMAP binding buffer A. Fluorescence polarization readings of the resulting reaction mixtures may be measured after a 60-minute incubation at room temperature.
IC50 values may be calculated by non-linear curve fitting of the compound concentrations and fluorescent polarization values to the standard IC50 equation.

Chain of Aurora B/INCENP (Q96GD4 whole entry): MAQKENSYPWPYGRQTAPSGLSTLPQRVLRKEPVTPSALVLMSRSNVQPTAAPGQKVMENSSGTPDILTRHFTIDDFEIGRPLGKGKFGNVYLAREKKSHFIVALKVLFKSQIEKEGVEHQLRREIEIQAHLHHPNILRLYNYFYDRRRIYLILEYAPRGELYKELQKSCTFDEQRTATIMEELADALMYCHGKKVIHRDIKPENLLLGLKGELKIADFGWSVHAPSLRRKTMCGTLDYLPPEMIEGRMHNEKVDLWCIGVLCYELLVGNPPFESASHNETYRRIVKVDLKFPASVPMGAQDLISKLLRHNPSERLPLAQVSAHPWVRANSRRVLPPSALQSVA
Chain of Aurora B/INCENP (Q9NQS7 whole entry partner): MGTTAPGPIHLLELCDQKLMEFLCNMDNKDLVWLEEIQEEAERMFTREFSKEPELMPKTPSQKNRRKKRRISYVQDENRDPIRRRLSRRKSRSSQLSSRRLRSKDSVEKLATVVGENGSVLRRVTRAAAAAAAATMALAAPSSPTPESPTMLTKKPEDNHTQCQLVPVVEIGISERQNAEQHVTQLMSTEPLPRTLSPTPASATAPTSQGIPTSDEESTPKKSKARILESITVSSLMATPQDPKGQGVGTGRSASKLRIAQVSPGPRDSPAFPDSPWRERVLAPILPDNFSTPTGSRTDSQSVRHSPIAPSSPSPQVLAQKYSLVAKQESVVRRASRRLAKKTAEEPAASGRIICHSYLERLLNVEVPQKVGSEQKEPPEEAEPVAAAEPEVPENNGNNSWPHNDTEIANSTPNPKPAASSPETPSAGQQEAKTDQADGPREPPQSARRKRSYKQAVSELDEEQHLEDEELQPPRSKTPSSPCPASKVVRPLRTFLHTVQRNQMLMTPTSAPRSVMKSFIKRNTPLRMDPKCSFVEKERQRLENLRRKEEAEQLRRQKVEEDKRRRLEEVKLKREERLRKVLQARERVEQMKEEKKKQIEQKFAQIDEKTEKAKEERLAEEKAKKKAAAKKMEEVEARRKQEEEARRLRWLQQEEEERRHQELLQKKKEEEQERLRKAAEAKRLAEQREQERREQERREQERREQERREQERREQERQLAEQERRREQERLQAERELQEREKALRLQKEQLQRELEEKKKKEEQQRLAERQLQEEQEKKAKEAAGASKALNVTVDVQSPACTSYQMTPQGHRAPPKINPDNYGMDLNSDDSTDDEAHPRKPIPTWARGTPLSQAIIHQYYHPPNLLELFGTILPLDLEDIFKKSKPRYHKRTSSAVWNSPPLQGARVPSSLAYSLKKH

Row | SMILES | IC50
1 | CCS(=O)(=O)c1cccc(-c2ccc(OC)c3[nH]c4ncc(C)cc4c23)c1 [Compound 157] | ≤ 5 nM
2 | CCNS(=O)(=O)c1cccc(-c2ccc(OC)c3[nH]c4ncc(C)cc4c23)c1 [Compound 170, N-ethyl-3-(8-methoxy-3-methyl-9H-pyrido[2,3-b]indol-5-yl)benzenesulfonamide] | ≤ 5 nM
3 | CNS(=O)(=O)c1cccc(-c2ccc(C)c3[nH]c4ncc(C)cc4c23)c1 [Compound 15, 3-(3,8-dimethyl-9H-pyrido[2,3-b]indol-5-yl)-N-methylbenzenesulfonamide] | ≤ 5 nM
4 | CCS(=O)(=O)c1cccc(-c2ccc(OCCCN(C)C)c3[nH]c4ncc(Cl)cc4c23)c1 [Compound 220, 3-(3-chloro-5-(3-(ethylsulfonyl)phenyl)-9H-pyrido[2,3-b]indol-8-yloxy)-N,N-dimethylpropan-1-amine] | ≤ 5 nM
5 | CCS(=O)(=O)c1cccc(-c2cc(C(N)=O)cc3[nH]c4ncc(C)cc4c23)c1 [Compound 128, 5-(3-Ethanesulfonyl-phenyl)-3-methyl-9H-pyrido[2,3-b]indole-7-carboxylic acid amide] | ≤ 5 nM
6 | CCS(=O)(=O)c1cccc(-c2ccc(OCC3CCNCC3)c3[nH]c4ncc(Cl)cc4c23)c1 [Compound 201, 3-chloro-5-(3-(ethylsulfonyl)phenyl)-8-(piperidin-4-ylmethoxy)-9H-pyrido[2,3-b]indole] | ≤ 5 nM
7 | CCS(=O)(=O)c1cccc(-c2ccc(OCC3CCNCC3)c3[nH]c4ncc(C)cc4c23)c1 [Compound 185, 5-(3-(ethylsulfonyl)phenyl)-3-methyl-8-(piperidin-4-ylmethoxy)-9H-pyrido[2,3-b]indole] | ≤ 5 nM
8 | CCS(=O)(=O)c1cccc(-c2ccc(OCCCN(C)C)c3[nH]c4ncc(C)cc4c23)c1 [Compound 206, 3-(5-(3-(ethylsulfonyl)phenyl)-3-methyl-9H-pyrido[2,3-b]indol-8-yloxy)-N,N-dimethylpropan-1-amine] | ≤ 5 nM
9 | CCS(=O)(=O)c1cccc(-c2cnc(Cl)c3[nH]c4ncc(C)cc4c23)c1 [Compound 40, 8-chloro-5-[3-(ethylsulfonyl)phenyl]-3-methyl-9H-pyrido[4',3':4,5]pyrrolo[2,3-b]pyridine] | ≤ 5 nM
10 | CCS(=O)(=O)c1cccc(-c2cc(C(=O)NC[C@H](C)O)c(C)c3[nH]c4ncc(C)cc4c23)c1 [Compound 100, (S)-5-(3-(ethylsulfonyl)phenyl)-N-(2-hydroxypropyl)-3,8-dimethyl-9H-pyrido[2,3-b]indole-7-carboxamide] | ≤ 5 nM
11 | CCS(=O)(=O)c1cccc(-c2cnc(OC[C@H](C)O)c3[nH]c4ncc(C)cc4c23)c1 [Compound 62, (S)-1-[5-(3-Ethanesulfonyl-phenyl)-3-methyl-9H-dipyrido[2,3-b;4',3'-d]pyrrol-8-yloxy]-propan-2-ol] | ≤ 5 nM
12 | CCS(=O)(=O)c1cccc(-c2ccc(OC[C@H](O)CO)c3[nH]c4ncc(C)cc4c23)c1 [Compound 231, (R)-3-(5-(3-(ethylsulfonyl)phenyl)-3-methyl-9H-pyrido[2,3-b]indol-8-yloxy)propane-1,2-diol] | ≤ 5 nM
13 | CCS(=O)(=O)c1cccc(-c2cnc(OCC3CCN(C)CC3)c3[nH]c4ncc(Cl)cc4c23)c1 [Compound 72, 3-Chloro-5-(3-ethanesulfonyl-phenyl)-8-(1-methyl-piperidin-4-ylmethoxy)-9H-dipyrido[2,3-b;4',3'-d]pyrrole] | ≤ 5 nM
14 | CCS(=O)(=O)c1cccc(-c2ccc(OCCCO)c3[nH]c4ncc(C)cc4c23)c1 [Compound 217, 3-(5-(3-(ethylsulfonyl)phenyl)-3-methyl-9H-pyrido[2,3-b]indol-8-yloxy)propan-1-ol] | ≤ 5 nM

Now from value to compound:

Row | IC50 | SMILES
15 | ≤ 5 nM | CCS(=O)(=O)c1cccc(-c2cnc(OCCCO)c3[nH]c4ncc(C)cc4c23)c1 [Compound 55, 3-[5-(3-Ethanesulfonyl-phenyl)-3-methyl-9H-dipyrido[2,3-b;4',3'-d]pyrrol-8-yloxy]-propan-1-ol]
16 | ≤ 5 nM | CCN(CCO)CCCOc1ccc(-c2cccc(S(=O)(=O)C3CC3)c2)c2c1[nH]c1ncc(C)cc12 [Compound 270, 2-((3-(5-(3-(cyclopropylsulfonyl)phenyl)-3-methyl-9H-pyrido[2,3-b]indol-8-yloxy)propyl)(ethyl)amino)ethanol]
17 | ≤ 5 nM | CCS(=O)(=O)c1cccc(-c2cc(C(=O)O)cc3[nH]c4ncc(C)cc4c23)c1 [Compound 140, 5-(3-Ethanesulfonyl-phenyl)-3-methyl-9H-pyrido[2,3-b]indole-7-carboxylic acid]
18 | ≤ 5 nM | Cc1cnc2[nH]c3c(OCCCN(C)C)ccc(-c4cccc(S(=O)(=O)C5CC5)c4)c3c2c1 [Compound 194, 3-(5-(3-(cyclopropylsulfonyl)phenyl)-3-methyl-9H-pyrido[2,3-b]indol-8-yloxy)-N,N-dimethylpropan-1-amine]
19 | ≤ 5 nM | CCS(=O)(=O)c1cccc(-c2ccc(O)c3[nH]c4ncc(C)cc4c23)c1 [Compound 158, 5-(3-(ethylsulfonyl)phenyl)-3-methyl-9H-pyrido[2,3-b]indol-8-ol]
20 | ≤ 5 nM | CCS(=O)(=O)c1cccc(-c2ccc(OCC3CCN(C)CC3)c3[nH]c4ncc(Cl)cc4c23)c1 [Compound 200, 3-chloro-5-(3-(ethylsulfonyl)phenyl)-8-((1-methylpiperidin-4-yl)methoxy)-9H-pyrido[2,3-b]indole]
21 | ≤ 5 nM | CCN(CCCOc1ccc(-c2cccc(S(=O)(=O)C3CC3)c2)c2c1[nH]c1ncc(Cl)cc12)CCOP(=O)(O)O [Compound 299, 2-((3-(3-chloro-5-(3-(cyclopropylsulfonyl)phenyl)-9H-pyrido[2,3-b]indol-8-yloxy)propyl)(ethyl)ammo)ethyl dihydrogen phosphate]
22 | ≤ 5 nM | CCS(=O)(=O)c1cccc(-c2cc(C(=O)NCCO)c(C)c3[nH]c4ncc(C)cc4c23)c1 [Compound 101, 5-(3-(ethylsulfonyl)phenyl)-N-(2-hydroxyethyl)-3,8-dimethyl-9H-pyrido[2,3-b]indole-7-carboxamide]
23 | ≤ 5 nM | Cc1cnc2[nH]c3c(OC[C@@H](O)CN(C)C)ccc(-c4cccc(S(=O)(=O)C5CC5)c4)c3c2c1 [Compound 313, (S)-1-(5-(3-(cyclopropylsulfonyl)phenyl)-3-methyl-9H-pyrido[2,3-b]indol-8-yloxy)-3-(dimethylamino)propan-2-ol]
